Measured values from patent US20260216163A1, “CANCER COMBINATION THERAPY INCLUDING A FLT3-INHIBITOR” (RYVU THERAPEUTICS S.A., priority 2022, published 2026).
pIC50: −log10 of the molar value. Read-outs that look alike come from different tables or passages of the source.

Key:
[1] = test system: MV4-11 (FLT3 ITD) cell line xenograft; test: in vivo AML xenograft study, tumor volume inhibition; settings: MV4-11 xenograft, per os from day 19, MEN 25 mg/kg Q1 × 14 d, Gilteritinib 3 mg/kg Q1 × 22 d, combination each as above
Protocol: For the AML xenograft model, 10×10^6 MV4-11 cells were re-suspended in 0.2 ml of BME type III (Trevigen) at 5.6 mg/ml+DPBS (1:1) and then injected subcutaneously into the right flank of 6-8 weeks old female SCID mice (Charles River, Calco, Italy).
After injection, mice were maintained in micro isolator cages under continuously monitored environmental conditions. Drinking water and specific sterilized diet (VRF1, Charles River) were supplied ad libitum. […] Twice a week, tumor growth and body weight were evaluated and recorded.
(§3) The outcome evaluation was carried out as follows: tumor volumes were measured by caliper, and tumor masses were calculated using the following formula: [length (mm)×width^2 (mm)×d]/2, assuming density, d=1 mg/mm^3 for tumor tissue (Teicher B. Totowa, 1997).
The treatment efficacy was assessed as TVI % in treated versus control mice, using the following formula: TVI %=(1−Volume Average of treated tumor mass/Volume Average of control tumor)*100.
Mice were sacrificed when tumors reached a volume of around 10% of total body weight or when mice's body weight decreased by more than 20% compared to control animals for 7 days or more. Animals were euthanized with carbon dioxide exposure according to the standard procedures (Annex IV of Directive 2010/63/EU; 2010).
GraphPad Prism software (GraphPAD Software Inc., California) was used for statistical analysis. Statistical differences were considered to be significant at p-value<0.05 using the two-tailed Mann-Whitney rank test.

MOLM-13 cells (FLT3 ITD) = test: in vitro standard cytotoxicity (MTS, 72 h), MEN and Gilt single agent or combination, Combination Index; assay type: cell-based, human; settings: MTS (Table 2); for pIC50: Homo sapiens, read-out: IC50 dose level (single agent cytotoxicity)
Protocol: (§1) In an in vitro standard cytotoxicity experiment, two AML cell lines (MV4-11 [FLT3 ITD] and MOLM-13 [FLT3 ITD]) were treated for 72 hours with MEN and Gilt (a Type I inhibitor) either as a single agent or in combination.
(§2) Human acute myeloid leukemia cell lines MV4-11 and MOLM-13 were obtained from DSMZ, Braunschweig, Germany (ACC102 and ACC554). […] All cells were incubated at 37° C., 5% CO2, 80% relative humidity.

MV4-11 cells (FLT3 ITD) = test: as above; assay type: cell-based, human; settings: for pIC50: Homo sapiens, read-out: IC50 dose level (single agent cytotoxicity)
Protocol: as §1, §2

[2] = test system: MOLM-13 (FLT3 ITD) cell line xenograft; test: in vivo AML xenograft study, tumor volume inhibition; settings: MOLM-13 xenograft, per os from day 15, MEN 25 mg/kg Q1 × 14 d, Gilteritinib 3 mg/kg Q1 × 14 d, combination each as above
Protocol: For the AML xenograft model, 10×10^6 MOLM-13 cells were re-suspended in 0.2 ml of BME type III (Trevigen) at 5.6 mg/ml+DPBS (1:1) and then injected subcutaneously into the right flank of 6-8 weeks old female CD-1 mice (Charles River, Calco, Italy).
After injection, mice were maintained in micro isolator cages under continuously monitored environmental conditions. Drinking water and specific sterilized diet (VRF1, Charles River) were supplied ad libitum. Environmental conditions, as well as the procedures for housing and handling the animals, complied with the UKCCCR guideline (Workman P et al., 2010) and the European Convention for the protection of vertebrate animals used for experimental and other scientific purposes (Directive 2010/63/EU; 2010). Twice a week, tumor growth and body weight were evaluated and recorded.
as §3
The treatment efficacy was assessed as TVI % in treated versus control mice, using the following formula: TVI %=(1−Volume Average of treated tumor mass/Volume Average of control tumor)*100. […]

[3] = test system: KG-1 cells (FLT wildtype); test: in vitro standard cytotoxicity (MTS, 72 h), MEN and Gilt single agent or combination, Combination Index; assay type: cell-based, human; settings: for pIC50: Homo sapiens
Description: Human acute myeloid leukemia cell line KG-1 was obtained from DSMZ, Braunschweig, Germany (ACC14).

MOLM-13 cells [4] = test: in vitro standard cytotoxicity (MTS, 72 h), MEN and Quizartinib single agent or combination, Combination Index; settings: for pIC50: Homo sapiens, MOLM-13, 72 h, read-out: IC50 (single agent cytotoxicity)
Protocol: (§4) The synergistic effect of the combination was measured according to the Combination Index calculation (Chou T C, 2006).
(§5) MOLM-13 cells were grown in RPMI with 20% FBS and incubated at 37° C., 5% CO2, 80% relative humidity.
(§6) 20907) were dissolved in DMSO, divided into aliquots and stored at −80° C. until use. Stock solutions were added at appropriate concentration in culture medium before the addition to cells.
(§7) For cytotoxicity studies cells were seeded at appropriate density (50.000 cells/well) prior to addition of MEN and Quiz at day 0. […] After 72 hours, CellTiter 96 Aqueous One Solution Reagent (MTS) (Promega, Madison. WI, USA) was added to assess the cell viability. Fluorescence was measured 4 h later using Tecan Infinite M200 (Tecan Trading AG, Switzerland), recording absorbance at 490 nm. Quantitative measurement of synergism/antagonism was evaluated with Combination Index (CI) on the Fraction affected (Fa) using CompuSyn (ComboSyn, Inc. Paramus, NJ, USA) (Chou T C, 2006).

MOLM-13 cells [5] = test system: MOLM-13 cells
Protocol: as §4, §5, §6, §7

[6] = MOLM-13 cells, 72 h, MTS (Table 5)

Compound	TVI % Day 33 [1]	TVI % Day 40 [1]	pIC50 (MOLM-13 cells (FLT3 ITD))	IC10 dose level (single agent cytotoxicity) (MOLM-13 cells (FLT3 ITD))	IC25 dose level (single agent cytotoxicity) (MOLM-13 cells (FLT3 ITD))	IC75 dose level (single agent cytotoxicity) (MOLM-13 cells (FLT3 ITD))	IC10 dose level (single agent cytotoxicity) (MV4-11 cells (FLT3 ITD))	IC25 dose level (single agent cytotoxicity) (MV4-11 cells (FLT3 ITD))	IC75 dose level (single agent cytotoxicity) (MV4-11 cells (FLT3 ITD))	pIC50 (MV4-11 cells (FLT3 ITD))	TVI % Day 29 [2]	IC10 (single agent cytotoxicity) [3]	IC25 (single agent cytotoxicity) [3]	IC75 (single agent cytotoxicity) [3]	pIC50 [3]	pIC50 (MOLM-13 cells [4])	other results
CCc1nc(C(N)=O)c(Nc2ccc(N3CCC(N4CCN(C)CC4)CC3)c(OC)c2)nc1NC1CCOCC1 [Gilteritinib]	84.1%	87.6%	7.96	1.4 nM	4 nM	32 nM	2.2 nM	4.2 nM	14 nM	8.10	60.1%	35.34 nM	150.2 nM	2712 nM	6.20	–	–
CC(C)n1c(C2CCNCC2)nc2c([N+](=O)[O-])c(Br)c(Br)cc21 [MEN, 5,6-dibromo-4-nitro-2-(piperidin-4-yl)-1-(propan-2-yl)-1H-1,3-benzodiazole]	57.2%	53.1%	6.29	87 nM	210 nM	1230 nM	151 nM	293 nM	1103 nM	6.24	38.8%	57.48 nM	203 nM	2530 nM	6.14	6.29	IC10 (single agent cytotoxicity) (MOLM-13 cells [4]; [6]): 87.29 nM; IC25 (single agent cytotoxicity) (MOLM-13 cells [4]; [6]): 322.2 nM; IC75 (single agent cytotoxicity) (MOLM-13 cells [4]; [6]): 1234 nM
CC(C)(C)c1cc(NC(=O)Nc2ccc(-c3cn4c(n3)sc3cc(OCCN5CCOCC5)ccc34)cc2)no1 [QUIZ, Quizartinib]	–	–	–	–	–	–	–	–	–	–	–	–	–	–	–	9.02	IC10 (single agent cytotoxicity) (MOLM-13 cells [5]): 0.374 nM; IC25 (single agent cytotoxicity) (MOLM-13 cells [5]): 0.595 nM; IC75 (single agent cytotoxicity) (MOLM-13 cells [5]): 1.504 nM
